As usually defined, the IC50 is the concentration needed to halve the response being measured.

IC50 data for 10 molecules are collected here from patent US9856259B2, “Heterocyclic compounds and uses thereof” (Plexxikon Inc., priority 2014, dated 2018).

Assay [1] deals with MV-4-11. The assay can be described thus: Oncology cell growth assay, MV-4-11 3 d growth. The format is cell-based. The following applies: Homo sapiens, MV4-11; MV-4-11 cells, 72 hours, CellTiter Glo; read-out: Cell activity (IC50 μM) MV-4-11 3 d-Growtb. As to the method: (§1) In this study, we test compounds in different cancer cell lines. MV-4-11 and MOLM-13 are AML cell lines harboring a MLL-AF4 and MLL-AF9 translocation, respectively. MM.1S is a multiple myeloma cell line. SK—N-AS, IMR-32 and SK-N-BE(2) are neuroblastoma cell lines. IMR-32 and SK-N-BE(2) cell lines harbor MYCN amplifications.
(§2) MV-4-11, MM.1S, IMR-32, SK-N-AS and SK-N-BE(2) were obtained from ATCC (IL, USA) and MOLM-13 were purchased from DSMZ (Braunschweig, German). Cells are cultured as recommended by their sources. For growth inhibition studies 3000 cells are seeded in wells of a 96-well plate in 75 μL of culture media. After several hours, growth media containing compounds of formula (I) are added to the wells. Compound at a maximal concentration of 5 mM was serially diluted 1:3 for a total of 8 point titration with DMSO as a control. A 1 μL aliquot of each dilution point is added to 249 μL growth media and 75 μL is added to each well containing cells, providing 10 μM compound at the maximum concentration point. The final concentration of DMSO in all wells is 0.2%. Cells are incubated for 72 hours, and 25 μL of CellTiter Glo Reagent (Promega Ga., USA) is added to each well. Plates are shaken for approximately 10 minutes and chemiluminescent signal is read on Tecan microplate reader. The measured luminescence correlates directly with cell number.
(§3) All data is normalized to the mean of eight DMSO high control wells on each plate. A four parameter curve fit of the following formula was then applied: Y=a+(b−a)/(1+(x/c)^d) Where ‘a’ is the minimum, ‘b’ is the maximum, ‘c’ is the pIC50 and ‘d’ is the Hill slope. […] Myc Reporter Assay
On the technique in general: Cellular ATP, detected with luciferase, serves as a proxy for viable cell number.

The target in assay [2] is T1, BRD4-BD12 (Homo sapiens, UniProt O60885).
T1 construct: dual bromodomains (BRD4-BD12 (1-477), BRD4-BD12 (1-472)); six-His tag (N); made in house; host or cells: E. coli BL21-CodonPlus (DE3)
Put plainly: Alphascreen binding assay, BRD4(1 2) H4. The following applies: BRD4 dual bromodomains with acetylated Histone 4 peptide, read-out: Biochemical activity (IC50 μM) BRD4(1 2) H4. The protocol:
Binding of compounds of formula (I) with bromodomain 2, 3 4 was assessed using Alphascreen binding assay. The inhibition of the interaction between bromodomain and its acetylated target protein (Filippakopoulos P et al. 2012) was measured quantitatively using recombinant BRD proteins, an acetylated Histone 4 peptide and AlphaScreen™ technology. In absence of inhibition the BRD protein bound to AlphaScreen™ nickel chelate acceptor beads can interact with the acetylated Histone 4 peptide which is immobilized by the AlphaScreen™ Streptavidin coated beads. This interaction brings donor and acceptor beads in proximity. The close proximity allows the singlet oxygen produced by laser excitation of the donor beads to reach the acceptor beads and generate a luminescence signal. BRD inhibitors result in a decrease in the proximity signal through an inhibition of the BRD acetylated peptide interaction.
Recombinant human bromodomains containing the N-terminal bromodomain (BRD2-BD1 (71-194), BRD3-BD1 (24-144) and BRD4-BD1 (44-164)) or dual bromodomains (BRD4-BD12 (1-477), BRD4-BD12 (1-472)) were prepared and purified as described in protein expression and purification session. The peptide is human Histone H41-21K5AcK8AcK12AcK16Ac-Biotin (Anaspec Calif., USA).
Protocol for BRD2, BRD3 and BRD4 assay: All components are prepared in buffer composed of 50 mM HEPES pH 7.5, 100 mM NaCl, 0.01% BSA, 0.01% Triton X-100, 2 mM DTT. 7 μL of Bromodomain protein and 7 μL of peptide are added to wells containing 1 μL of various concentrations of test compounds of formula (I) or DMSO vehicle in an Alphaplate (PerkinElmer Ga., USA) and incubated for 1 hour at room temperature. 4 μL donor and acceptor bead mixture is then added with final concentrations of 7.5 μg/ml. 30 minutes after bead addition, Alpha signal is read on the Envision spectrometer (λEx 680 nm, λEm 520-620 nm). Final concentrations of bromodomain proteins and peptide are as shown below.
All data was normalized to the mean of 16 high and 16 low control wells on each plate. A four parameter curve fit of the following formula was then applied: Y=a+(b−a)/(1+(x/c)^d) Where ‘a’ is the minimum, ‘b’ is the maximum, ‘c’ is the pIC50 and ‘d’ is the Hill slope. Protein Expression and Purification
Recombinant human bromodomains containing the N-terminal bromodomain (BRD2-BD1 (71-194), BRD3-BD1 (24-144) and BRD4-BD1 (44-164)) or dual bromodomains (BRD4-BD12 (1-477), BRD4-BD12 (1-472)) were expressed in E. coli cells (in a modified pET vector) with an N-terminal six-His tag and purified using a combination of both IMAC (Ni-affinity) and size exclusion chromatography steps.
Recombinant BRD proteins were expressed using the E. coli strain BL21-CodonPlus (DE3) (Agilent Technologies CA, USA). Cells were grown in Terrific Broth (TB) media to an OD600 of 1.2 at 37° C. at which temperature was reduced to 25° C., protein was induced with 1.0 mM IPTG for 12-18 hours and harvested by centrifugation at 8000×g for 20 minutes. Cells were re-suspended in 0.1M KPO4 pH 8.0, 250 mM NaCl, 10% Glycerol, 0.75% NP-40, 25 mM Imidazole, 5 mM BME with 0.2 mg/ml Lysosyme, 2.0 mM PMSF, 25 μg/ml DNAse I, incubated on ice for 30 minutes and lyzed with a cell disruptor (MicroFluidics MA, USA). The lysate was clarified by centrifugation at 20,000×g for 2 hours. The protein was captured with Ni-NTA resin (Life Technologies, USA). Contaminating proteins were washed off with 25 mM Tris-HCl pH 8.3, 250 mM NaCl, 12% Glycerol and 50 mM Imidazole. Following 3× wash steps, protein was eluted step wise using a 50 mM HEPES pH 7.5, 500 mM NaCl and 400 mM Imidazole. The protein was further purified using Gel Filtration column 26/600 Superdex 200 (GE Biosciences N.J., USA) in 50 mM HEPES pH 7.5, 250 mM NaCl. The protein was aliquoted and flash-frozen in liquid Nitrogen.
A general note: Bead proximity is the source of the signal in Alpha formats.

Assay [3] deals with cancer cell lines / MV-4-11 Myc reporter cell line. The assay can be described thus: Bromodomain cell assays of Example 8 (at least one of them). The format is cell-based. The following applies: Homo sapiens, MV4-11; at least one of the bromodomain cell assays described in Example 8. The protocol:
as §1, §2, §3
In MV-4-11 cells, BRD2, BRD3 and BRD4 bind to the promoter region of MYC and regulate its transcription (Dawson M A et al. 2011). The literature bromodomain inhibitor iBET 151 could disrupt BRD4 recruitment to the MYC promoter and subsequently downregulate c-myc transcription (Dawson M A et al. 2011). Myc protein is a transcription factor that heterodimerizes with an obligatory partner Max and regulates the transcription of genes important for cell proliferation, differentiation, and apoptosis. This Myc reporter assay is used to monitor the inhibitory effect of compound of formula (I) on Myc dependent gene expression. Effective compounds could have potential therapeutic effects in Myc-driven tumors.
The MV-4-11 Myc reporter cell line is established by infecting MV-4-11 with VSV-g pseudotyped lentivirus expressing the firefly luciferase gene under the control of a minimal (m) CMV promoter and tandem repeats of the E-box transcriptional response element (TRE) (Qiagen IL, USA) and selecting cells in 2.5 μg/ml Puromycin.
The MV-4-11 Myc reporter cell line is maintained in Iscove's Modified Dulbecco's Medium containing 10% FBS, 1% PenStep and 2.5 μg/ml Puromycin. Cells are incubated at 37° C. in a humidified atmosphere with 5% CO2. 25,000 cells are seeded in 96-well plate in 50 μL of culture media. After several hours, growth media containing 2× compounds are added to the wells. Compound at a maximal concentration of 5 mM is serially diluted 1:3 for a total of 8 point titration. A 1 μl aliquot of each dilution point is added to 249 μl growth media and 50 μl is added to each well containing cells, providing 10 μM compound at the maximum concentration point. DMSO treated cells serve as a high control and 10 μM JQ1 treated cells serve as a low control. Cells are incubated for a further 24 hours and 25 μL of CellTiter-Fluo Reagent (Promega Ga., USA) is added to each well. Plates are shaken for approximately 2 minutes and incubated at 37° C. for 0.5 hour. Fluorescence signal is read in a Tecan Plate reader (λex=400 nm, λcm=505 nm). 25 μL of One-Glo Reagent (Promega Ga., USA) is then added to the plates. Chemiluminescent signal is read on Tecan plate reader. Values from the wells with no cells are subtracted from all samples for background correction. […]

On to `Cc1noc(C)c1-c1cnc2c(-c3ccc(C#N)nc3)cn([C@@H](C)c3ccccn3)c2n1` [Compound P-2055, 5-[3-(3,5-dimethylisoxazol-4-yl)-5-[(1S)-1-(2-pyridyl)ethyl]pyrrolo[2,3-b]pyrazin-7-yl]pyridine-2-carbonitrile], for which the IC50 in assay [1] was ≤ 1 µM; in assay [2] it was ≤ 1 µM; in assay [3], < 10 µM.

For the molecule `Cc1noc(C)c1-c1cnc2c(-c3cnn(C)c3)nn(CC3CCC(F)(F)CC3)c2c1` [Compound P-2081, 4-[1-[(4,4-difluorocyclohexyl)methyl]-3-(1-methylpyrazol-4-yl)pyrazolo[4,3-b]pyridin-6-yl]-3,5-dimethyl-isoxazole], the IC50 in assay [1] was ≤ 1 µM; in assay [2], ≤ 1 µM; in assay [3], < 10 µM.

As to `COC(=O)c1ccc(-c2nn([C@@H](C)c3ccccn3)c3cc(-c4c(C)noc4C)ccc23)cc1` [Compound P-2011, methyl 4-[6-(3,5-dimethylisoxazol-4-yl)-1-[(1S)-1-(2-pyridyl)ethyl]indazol-3-yl]benzoate], the IC50 was ≤ 1 µM in assay [1], ≤ 1 µM in assay [2] and < 10 µM in assay [3].

With `Cc1noc(C)c1-c1cnc2c(I)nn(CC3CCC(F)(F)CC3)c2c1` [Compound P-2080, 4-[1-[(4,4-difluorocyclohexyl)methyl]-3-iodo-pyrazolo[4,3-b]pyridin-6-yl]-3,5-dimethyl-isoxazole], the IC50 in assay [1] was ≤ 1 µM; in assay [2] it was ≤ 1 µM; in assay [3], < 10 µM.

Consider `Cc1noc(C)c1-c1cnc2c(-c3cnn(C(F)F)c3)nn(CC3(F)CCCCC3)c2c1` [Compound P-2088, 4-[3-[1-(difluoromethyl)pyrazol-4-yl]-1-[(1-fluorocyclohexyl)methyl]pyrazolo[4,3-b]pyridin-6-yl]-3,5-dimethyl-isoxazole], for which the IC50 in assay [1] was ≤ 1 µM; in assay [2], ≤ 1 µM; in assay [3], < 10 µM.

For `[2H]C([2H])(C1CCC(F)(F)CC1)n1cc(-c2ccc(C(=O)O)cc2)c2ncc(-c3c(C)noc3C)nc21` [Compound P-2044, 4-[5-[dideuterio-(4,4-difluorocyclohexyl)methyl]-3-(3,5-dimethylisoxazol-4-yl)pyrrolo[2,3-b]pyrazin-7-yl]benzoic acid], the IC50 in assay [1] was ≤ 1 µM; in assay [2] it was ≤ 1 µM; in assay [3], < 10 µM.

For `Cc1noc(C)c1-c1ccc2c(-c3ccc(C(=O)O)cc3)nn(C(c3ccccc3)c3ccccn3)c2c1` (stereo not drawn) [Compound P-2007, 4-[6-(3,5-dimethylisoxazol-4-yl)-1-[phenyl(2-pyridyl)methyl]indazol-3-yl]benzoic acid], the IC50 in assay [1] was ≤ 1 µM; in assay [2] it was ≤ 1 µM; in assay [3], < 10 µM.

Turning to `Cc1noc(C)c1-c1cnc2c(I)cn([C@@H](C)c3ccccn3)c2n1` [Compound P-2056, 4-[7-iodo-5-[(1S)-1-(2-pyridyl)ethyl]pyrrolo[2,3-b]pyrazin-3-yl]-3,5-dimethyl-isoxazole], the IC50 in assay [1] is ≤ 1 µM; in assay [2] it was ≤ 1 µM; in assay [3], < 10 µM.

Consider `[2H]C([2H])(C1CCC(F)(F)CC1)n1nc(-c2cnn(C(F)F)c2)c2ncc(-c3c(C)noc3C)cc21` [Compound P-2084, 4-[1-[dideuterio-(4,4-difluorocyclohexyl)methyl]-3-[1-(difluoromethyl)pyrazol-4-yl]pyrazolo[4,3-b]pyridin-6-yl]-3,5-dimethyl-isoxazole], for which the IC50 in assay [1] was ≤ 1 µM; in assay [2], ≤ 1 µM; in assay [3] it was < 10 µM.

Turning to `COC(=O)c1ccc(-c2cn([C@@H](C)c3ccccn3)c3nc(-c4c(C)noc4C)cnc23)cc1` [Compound P-2049, methyl 4-[3-(3,5-dimethylisoxazol-4-yl)-5-[(1S)-1-(2-pyridyl)ethyl]pyrrolo[2,3-b]pyrazin-7-yl]benzoate], the results for the IC50 in assay [1], in assay [2] and in assay [3] were ≤ 1 µM, ≤ 1 µM and < 10 µM, respectively.
